Assay results published in patent US11098061B2 (Celgene CAR LLC, priority 2013, dated 2021).

Assays:
MK2 [1] = biological target: T1, MK2 (Homo sapiens (Human), UniProt P49137); experiment: MK2 cellular assay (Hsp27 phosphorylation in Thp-1 cells); assay type: cell-based; conditions: differentiated Thp-1 cells, compound 1 hour, 50 ng/ml LPS 15 minutes, phosphorylation of Hsp27; read-out: MK2EC50
Outline: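 PMA-differentiated (10 ng/ml, 2 days) human Thp-1 monocytic cells given compound for 1 h, washed, then stimulated with 50 ng/ml LPS for 15 min. Hsp27 phosphorylation measured by western blot of lysates (20 μg protein); EC50 from dose-response inhibition.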

[2] = biological target: p38a activated, mitogen-activated protein kinase-activated protein kinase 2 (MAPKAP-K2 or MK-2) enzyme (Homo sapiens (Human), UniProt P49137); experiment: MK2 Omnia continuous-read kinase assay for compound potency; assay type: biochemical; conditions: [MK-2]=0.4 nM, [ATP]=1.0 mM, [ST3-Sox]=10 μM
Outline: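 Continuous Omnia fluorescence read (λex360/λem485) every 71 s after starting with 0.4 nM MK-2, with 1.0 mM ATP (appKM 8-10 μM) and 10 μM ST3-Sox substrate.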

MK2 [3] = biological target: T1, MK2; experiment: MK2 modification assessment by whole protein mass spectrometry; assay type: binding; conditions: intact MK2, 60 min, 10-fold excess of compound to protein
Outline: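 MK2 treated with compound is analysed intact by MALDI-TOF after C4 cleanup in sinapinic acid matrix. Percent modification is the centroid mass shift against control MK2 divided by compound mass.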

TNFα release = experiment: PO mouse PD experiment (TNFα release after LPS); assay type: in vivo; conditions: CD-1 male mice, 30 mg/kg PO, 1 hour prior to LPS, read-out: % Inhibition of TNFa
Method: CD-1 male mice, approximately 5 weeks old were acquired from Charles River Laboratories. Animals were housed in ventilated cages with a 12/12 light cycle and provided rodent chow and water ad libitum. Mice were acclimated at least 1 week prior to study initiation (approximately 6 weeks old). Five (5) mice per group were predosed at 30 mg/kg PO with one of the following compounds: III-8, III-35, II-27, III-47, III-56, V-39, II-27, III-37, II-e-1, II-e-3, III-40, and V-58 (by oral gavage as a suspension in 0.5% methyl cellulose/0.25% Tween 80 in deionized water), 1 hour prior to LPS administration. LPS (E.Coli 055:B5 from Sigma, Cat #L2880) was diluted in 0.9% sterile saline (Webster Veterinary Supply, Cat #07-883-6734) to a final concentration of 30 μg/mL. Animals were administered 15 μg in 0.5 mL/mouse (approximately 0.5 mg/kg LPS) intraperitoneally. One hour post LPS administration, the mice were sacrificed via CO2 and whole blood was collected by cardiac puncture. Blood was placed in EDTA K2 tubes (Braintree Scientific, Cat #MT-1395), inverted 3 times and placed on wet ice until centrifugation at 4° C. Plasma was collected and stored on dry ice until stored at −80° C. until processing. TNFα levels were quantified using the “Mouse TNF-alpha Ultra-Sensitive Kit” from mesoscale.com (catalog number K152BHC-2) in conjunction with an MSD plate reader.

T1 sequence (P49137 whole entry): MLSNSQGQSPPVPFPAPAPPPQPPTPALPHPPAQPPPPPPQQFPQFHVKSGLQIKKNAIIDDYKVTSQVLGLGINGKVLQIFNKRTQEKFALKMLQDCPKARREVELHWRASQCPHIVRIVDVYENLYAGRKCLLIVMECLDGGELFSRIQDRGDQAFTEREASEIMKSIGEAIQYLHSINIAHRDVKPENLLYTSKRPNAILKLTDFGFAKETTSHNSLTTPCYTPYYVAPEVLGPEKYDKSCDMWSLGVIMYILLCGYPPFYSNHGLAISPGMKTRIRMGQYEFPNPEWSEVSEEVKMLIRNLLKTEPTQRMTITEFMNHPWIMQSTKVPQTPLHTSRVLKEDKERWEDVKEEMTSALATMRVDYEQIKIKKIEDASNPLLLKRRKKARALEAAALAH
Sequence of p38a activated, mitogen-activated protein kinase-activated protein kinase 2 (MAPKAP-K2 or MK-2) enzyme (P49137 whole entry): as above

Row | Compound | EC50 (MK2 [1]) | IC50 [2] | MK2 Mass Mod (MK2 [3]) | inhibition in vivo at 30 mg/kg (TNFα release)
1 | C=CC(=O)Nc1cccc(-c2cc3c(ccc4c5c([nH]c43)CCC5=O)cn2)c1 [II-e-1, N-(3-(7-oxo-7,8,9,10-tetrahydrocyclopenta[4,5]pyrrolo[2,3-f]isoquinolin-2-yl)phenyl)acrylamide] | 0.501 to 0.999 µM | 0.101 to 0.5 µM | E (mass modification of ≥70%) | ≤ 20%
2 | C=CC(=O)Nc1cc(-c2ccc3c(ccc4sc5c(c43)NC[C@@H](C)NC5=O)n2)ccc1C [III-37, (R)—N-(2-methyl-5-(10-methyl-8-oxo-9,10,11,12-tetrahydro-8H-[1,4]diazepino[5′,6′:4,5]thieno[3,2-f]quinolin-3-yl)phenyl)acrylamide] | < 0.1 µM | < 0.1 µM | E (mass modification of ≥70%) | ≤ 20%
3 | C=CC(=O)NC1CCCC1NC(=O)c1ccc2sc3c(c2c1)NC[C@@H](C)NC3=O (some centres unmarked) [III-47] | < 0.1 µM | < 0.1 µM | E (mass modification of ≥70%) | ≤ 20%
4 | C=CC(=O)Nc1cc(NC(=O)c2ccc3sc4c(c3c2)NC[C@@H](C)NC4=O)ccc1C1CCN(C)CC1 [III-56, (R)—N-(3-acrylamido-4-(1-methylpiperidin-4-yl)phenyl)-3-methyl-5-oxo-2,3,4,5-tetrahydro-1H-benzo[4,5]thieno[3,2-e][1,4]diazepine-9-carboxamide] | – | – | – | ≤ 20%
5 | C=CC(=O)Nc1cc(NC(=O)c2ccc3sc4c(c3c2)NC[C@@H](C)NC4=O)ccc1OCCOC [III-7, (R)—N-(3-acrylamido-4-(2-methoxyethoxy)phenyl)-3-methyl-5-oxo-2,3,4,5-tetrahydro-1H-benzo[4,5]thieno[3,2-e][1,4]diazepine-9-carboxamide] | > 1 µM | < 0.1 µM | E (mass modification of ≥70%) | –
6 | C=CC(=O)Nc1cc(-c2cc3c(cn2)CCc2c-3[nH]c3c2C(=O)NCC3)ccc1OCCCN [II-10, N-(2-(3-aminopropoxy)-5-(7-ox-6,7,8,9,11-hexahydro-5H-pyrido[3′,4′:4,5]pyrrolo[2,3-f]isoquinolin-2-yl)phenyl)acrylamide] | 0.501 to 0.999 µM | < 0.1 µM | E (mass modification of ≥70%) | –
7 | C=CC(=O)N1CC(C)Oc2ccc(-c3cc4c(ccc5c6c([nH]c54)CCC6=O)cn3)cc21 (centres unmarked) [II-e-17, 2-(4-acryloyl-2-methyl-3,4-dihydro-2H-benzo[b][1,4]oxazin-6-yl)-8,9-dihydrocyclopenta[4,5]pyrrolo[2,3-f]isoquinolin-7(10H)-one] | 0.501 to 0.999 µM | < 0.1 µM | E (mass modification of ≥70%) | –
8 | C=CC(=O)Nc1cc(-c2cc(-c3cc4c([nH]3)C3(CCCNC3)CNC4=O)ccn2)ccc1F (centres unmarked) [Compound I-8] | > 1 µM | < 0.1 µM | E (mass modification of ≥70%) | –
9 | C=CC(=O)Nc1cc(-c2cc3c(cn2)CCc2c-3[nH]c3c2C(=O)NCC3)cnc1OC [II-4, N-(2-methoxy-5-(7-oxo-6,7,8,9,10,11-hexahydro-5H-pyrido[3′,4′:4,5]pyrrolo[2,3-f]isoquinolin-2-yl)pyridin-3-yl)acrylamide] | < 0.1 µM | < 0.1 µM | E (mass modification of ≥70%) | –
10 | C=CC(=O)Nc1cc(-c2ccc3c(ccc4sc5c(c43)NC[C@@H](C)NC5=O)n2)ccc1F [III-13, (R)—N-(2-fluoro-5-(10-methyl-8-oxo-9,10,11,12-tetrahydro-8H-[1,4]diazepino[5′,6′:4,5]thieno[3,2-f]quinolin-3-yl)phenyl)acrylamide] | < 0.1 µM | < 0.1 µM | F (mass modification of 31-69%) | –
11 | C=CS(=O)(=O)N1CCC[C@@H](NC(=O)c2ccc3sc4c(c3c2)NC[C@@H](C)NC4=O)C1 [III-44] | 0.101 to 0.5 µM | < 0.1 µM | E (mass modification of ≥70%) | –
12 | C=CC(=O)Nc1ccccc1NC(=O)c1ccc2sc3c(c2c1)NC[C@@H](C)NC3=O [III-10, (R)—N-(2-acrylamidophenyl)-3-methyl-5-oxo-2,3,4,5-tetrahydro-1H-benzo[4,5]thieno[3,2-e][1,4]diazepine-9-carboxamide] | > 1 µM | 0.101 to 0.5 µM | E (mass modification of ≥70%) | –
13 | C=CC(=O)N1CCOc2ncc(-c3cc4c(cn3)CCc3c-4[nH]c4c3C(=O)NC3(CC3)C4)cc21 [II-9, 2′-(1-acryloyl-2,3-dihydro-1H-pyrido[2,3-b][1,4]oxazin-7-yl)-5′,6′,10′,11′-tetrahydrospiro[cyclopropane-1,9′-pyrido[3′,4′:4,5]pyrrolo[2,3-f]isoquinolin]-7′(8′H)-one] | > 1 µM | < 0.1 µM | E (mass modification of ≥70%) | –
14 | C=CC(=O)Nc1cc(NC(=O)c2ccc3sc4c(c3c2)NC[C@@H](C)NC4=O)ccc1N1CCCC1 [III-3, (R)—N-(3-acrylamido-4-(pyrrolidin-1-yl)phenyl)-3-methyl-5-oxo-2,3,4,5-tetrahydro-1H-benzo[4,5]thieno[3,2-e][1,4]diazepine-9-carboxamide] | < 0.1 µM | < 0.1 µM | E (mass modification of ≥70%) | –
15 | C=CC(=O)Nc1cc(-c2ncc3c(n2)-c2[nH]c4c(c2CC3)C(=O)NCC4)ccc1OCCOC [II-15, N-(2-(2-methoxyethoxy)-5-(7-oxo-6,7,8,9,10,11-hexahydro-5H-pyrido[3′,4′:4,5]pyrrolo[3,2-h]quinazolin-2-yl)phenyl)acrylamide] | < 0.1 µM | < 0.1 µM | E (mass modification of ≥70%) | –
16 | C=CC(=O)Nc1cc(-c2nccc(-c3cc4n(c3)CCNC4=O)n2)ccc1OC [V-c-2, N-(2-methoxy-5-(4-(1-oxo-1,2,3,4-tetrahydropyrrolo[1,2-a]pyrazin-7-yl)pyrimidin-2-yl)phenyl)acrylamide] | > 1 µM | < 0.1 µM | E (mass modification of ≥70%) | –
17 | C=CC(=O)Nc1cc(-c2cc3c(ccc4c5c([nH]c43)CCC5=O)cn2)ccc1F [II-e-3, N-(2-fluoro-5-(7-oxo-7,8,9,1-tetrahydrocyclopenta[4,5]pyrrolo[2,3-f]isoquinolin-2-yl)phenyl)acrylamide] | – | – | – | ≤ 20%
18 | C=CC(=O)Nc1cc(C2CCN(C)CC2)cc2oc(-c3ccc4cc5n(c4c3)C3(CCC3)CNC5=O)nc12 [Compound V-61, N-(6-(1-methylpiperidin-4-yl)-2-(1′-oxo-2′,3′-dihydro-1′H-spiro[cyclobutane-1,4′-pyrazino [1,2-a]indol]-7′-yl)benzo[d]oxazol-4-yl)acrylamide] | < 0.1 µM | < 0.1 µM | E (mass modification of ≥70%) | –
19 | C=CC(=O)Nc1cc(NC(=O)c2ccc3sc4c(c3c2)NC[C@@H](C)NC4=O)ccc1N1CCNCC1 [III-5, (R)—N-(3-acrylamido-4-(piperazin-1-yl)phenyl)-3-methyl-5-oxo-2,3,4,5-tetrahydro-1H-benzo[4,5]thieno[3,2-e][1,4]diazepine-9-carboxamide] | > 1 µM | < 0.1 µM | E (mass modification of ≥70%) | –
20 | C=CC(=O)Nc1cc(-c2cc3c(ccc4c5c([nH]c43)CCC5=O)cn2)ccc1N1CCN(C)CC1 [II-e-4, N-(2-(4-methylpiperazin-1-yl)-5-(7-oxo-7,8,9,10-tetrahydrocyclopenta[4,5]pyrrolo[2,3-f]isoquinolin-2-yl)phenyl)acrylamide] | < 0.1 µM | < 0.1 µM | E (mass modification of ≥70%) | –
